Legend:
Type in all cases: in vivo
[1] = test system: larvae of the banded cucumber beetle (Diabrotica balteata); assay: Diabrotica balteata spray test; settings: 168 h, 100 g/ha (=32 μg/well), wheat seeds, after 7 days, read-out: efficacy (seedling growth)
In short: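 Wheat seeds germinated 1 day on agar were sprayed with compound in acetone/dimethylformamide with alkylarylpolyglycol ether emulsifier, diluted in emulsifier-containing water. Each unit then received 10-20 larvae, and % efficacy was scored after 7 days.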

[2] = test system: green peach aphid (Myzus persicae); assay: Myzus persicae spray test; settings: foliar, 120 h, Chinese cabbage leaf disks, after 5 days
Description: Myzus persicae—Spray Test • Solvent: 78.0 parts by weight acetone • 1.5 parts by weight dimethylformamide • Emulsifier: alkylarylpolyglycol ether
To produce a suitable preparation of active compound, 1 part by weight of active compound is mixed with the stated amount of solvents and is diluted with water, containing an emulsifier concentration of 1000 ppm, to the desired concentration. Further test concentrations are prepared by dilution with emulsifier containing water.
Chinese cabbage (Brassica pekinensis) leaf disks infected with all instars of the green peach aphid (Myzus persicae), are sprayed with a preparation of the active ingredient of the desired concentration.
(§1) After 5 days mortality in % is determined. 100% means all aphids have been killed and 0% means none of the aphids have been killed.

[3] = test system: fall armyworm larvae (Spodoptera frugiperda); assay: Spodoptera frugiperda spray test (maize leaf sections); settings: 168 h
In short: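 Maize leaf sections sprayed with compound in acetone/dimethylformamide, diluted in water with 1000 ppm alkylarylpolyglycol ether emulsifier. Dried sections infested with fall armyworm larvae. Mortality (%) scored after 7 days; 100% = all caterpillars killed.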

[4] = test system: adult mosquitoes Aedes aegypti strain MONHEIM; assay: Aedes aegypti test (AEDSAE surface treatment & contact assay); settings: 24 hours after contact, read-out: efficacy (mortality); for mortality at 4 mg/m2: surface concentration 4 mg/m^2, 30 min exposure; for mortality at 20 mg/m2: surface concentration 20 mg/m^2, 30 min exposure
Description: Aedes aegypti test (AEDSAE surface treatment & contact assay) • Solvent: Aceton+2000 ppm rapeseed oil methyl ester (RME)
(§2) In order to produce a sufficient, active ingredient containing solution it is necessary to solve the test compound in the solvent-mix (acetone at 2 mg/ml/RME 2000 ppm). This solution is pipetted onto a glazed tile and after evaporation of the acetone, adult mosquitoes of the species Aedes aegypti strain MONHEIM are placed onto the dried surface. The exposure time is 30 minutes.
(§3) Mortality in percent (%) is determined 24 hours after contact of the insects to the treated surface. 100% mortality means that all tested insects are dead, whereas 0% means that no insect died.

[5] = test system: adult flies Musca domestica strain WHO-N; assay: Musca domestica test (MUSCDO surface treatment & contact assay); settings: 24 hours after contact, read-out: efficacy (mortality); for mortality at 4 mg/m2: surface concentration 4 mg/m^2, 30 min exposure; for mortality at 20 mg/m2: surface concentration 20 mg/m^2, 30 min exposure
Description: Musca domestica Test (MUSCDO Surface Treatment & Contact Assay) • Solvent: Aceton+2000 ppm rapeseed oil methyl ester (RME)
as §2, with “flies” for “mosquitoes”, “Musca domestica” for “Aedes aegypti”, “WHO-N” for “MONHEIM”
as §3

[6] = test system: larvae of the southern green stink bug (Nezara viridula); assay: Nezara viridula spray test; settings: in Hordeum vulgare, 96 h
In short: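 Barley plants sprayed with compound in acetone/dimethylformamide, diluted in water with 1000 ppm alkylarylpolyglycol ether emulsifier, then infested with Nezara viridula larvae. Percent mortality read after 4 days (100% = all killed, 0% = none).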

[7] = test system: Rhipicephalus microplus larvae (strain Parkhurst, resistant against synthetic pyrethroids); assay: Rhipicephalus (Boophilus) microplus in-vitro contact test, larval cattle tick; settings: 5 μg/cm^2 (=500 g/ha), after 48 hours, read-out: efficacy (larvae dead or moribund)
In short: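 Larvae exposed by contact to a dried acetone film on glass; a 900 ppm solution yields 5 μg/cm^2. Scoring after 48 h at 27° C. counts dead plus moribund larvae as efficacy.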

[8] = test system: adult engorged female ticks (Rhipicephalus microplus); assay: Rhipicephalus (Boophilus) microplus injection test; settings: 168 h, 4 μg/animal, egg deposition after 7 days, read-out: efficacy (infertile eggs)
Description: Rhipicephalus (Boophilus) Microplus—Injection Test
(§4) Solvent: dimethyl sulfoxide
To produce a suitable preparation of active compound, 10 mg of active compound are dissolved in 0.5 mL solvent, and the concentrate is diluted with solvent to the desired concentration.
Five adult engorged female ticks (Rhipicephalus microplus) are injected with 1 μL compound solution into the abdomen. The ticks are transferred into replica plates and incubated in a climate chamber.
After 7 days egg deposition of fertile eggs is monitored. Eggs where fertility is not visible are stored in a climate chamber till hatching after about 42 days. An efficacy of 100% means all eggs are infertile; 0% means all eggs are fertile.

[9] = test system: adult unfed cat fleas (Ctenocephalides felis); assay: Ctenocephalides felis oral test; settings: 48 h
Description: Ctenocephalides felis—Oral Test
as §4
To produce a suitable preparation of active compound, 10 mg of active compound are dissolved in 0.5 mL solvent, and the concentrate is diluted with cattle blood to the desired concentration.
Approximately 20 adult unfed cat fleas (Ctenocephalides felis) are placed in flea chambers. The blood chamber, sealed with parafilm on the bottom, are filled with cattle blood supplied with compound solution and placed on the gauze covered top of the flea chamber, so that the fleas are able to suck the blood. The blood chamber is heated to 37° C. whereas the flea chamber is kept at room temperature.
After 2 days mortality in % is determined. 100% means all the fleas have been killed; 0% means none of the fleas have been killed.

[10] = test system: adult brown dog ticks (Rhipicephalus sanguineus); assay: Rhipicephalus sanguineus in-vitro contact test with adult brown dog ticks; settings: 5 μg/cm^2 (=500 g/ha), after 48 hours, read-out: efficacy (ticks dead or moribund)
Description: Rhipicephalus sanguineus—In-Vitro Contact Tests with Adult Brown Dog Ticks
(§5) 9 mg compound is solved in 1 mL acetone and diluted with acetone to the desired concentration. 250 μL of the test solution is filled in 25 mL glass test tubes and homogeneously distributed on the inner walls by rotation and tilting on a shaking device (2 h at 30 rpm). With a compound concentration of 900 ppm, an inner surface of 44.7 cm^2 and a homogeneous distribution, a dose of 5 μg/cm^2 is achieved.
(§6) After the solvent has evaporated, each test tube is filled with 5-10 adult brown dog ticks (Rhipicephalus sanguineus), closed with a perforated lid and incubated in a lying position at room temperature and relative humidity. After 48 hours efficacy is determined. The ticks are patted on the ground of the tubes and are incubated on a heating plate at 45-50° C. for at most 5 minutes. Immotile or uncoordinated moving ticks, which are not able to escape the heat by climbing upwards, are marked as dead or moribund.
An efficacy of 100% means all ticks are dead or moribund; 0% means no ticks are dead or moribund.

[11] = test system: green peach aphid (Myzus persicae); assay: Myzus persicae oral test; settings: 120 h
Description: Myzus persicae—oral test • Solvent: 100 parts by weight acetone
To produce a suitable preparation of active compound, 1 part by weight of active compound is mixed with the stated amount of solvent, and the concentrate is diluted with water to the desired concentration. 50 μL compound solution is filled in microtiter plates and 150 μL IPL41 insect medium (33%+15% sugar) is added to obtain a total volume of 200 μL per well. Afterwards the plates are sealed with parafilm through which a mixed population of the green peach aphid (Myzus persicae) can suck on the compound preparation.
as §1

[12] = test system: adult cat fleas (Ctenocephalides felis); assay: Ctenocephalides felis in-vitro contact test, adult cat flea; settings: 5 μg/cm^2 (=500 g/ha), after 48 hours
Description: Ctenocephalides felis—In-Vitro Contact Tests Adult Cat Flea
as §5
as §6, with “cat fleas (Ctenocephalides felis),” for “brown dog ticks (Rhipicephalus sanguineus),”, “fleas” for “ticks”, “fleas,” for “ticks,”
An efficacy of 100% means all fleas are dead or moribund; 0% means no fleas are dead or moribund.

| Structure (SMILES) | pest or weed control at 32 µg/disc, 100 g/ha [1] [%] | mortality at 100 g/ha [2] [%] | mortality at 100 g/ha [3] [%] | mortality at 4 mg/m2 [4] [%] | mortality at 4 mg/m2 [5] [%] | mortality at 20 mg/m2 [5] [%] | mortality at 500 g/ha [6] [%] | mortality at 20 mg/m2 [4] [%] | pest or weed control at 5 µg/cm2 [7] [%] | pest or weed control at 0.004 mg [8] [%] | mortality at 100 ppm [9] [%] | pest or weed control at 5 µg/cm2, 500 g/ha [10] [%] | mortality at 4 ppm [11] [%] | mortality at 100 g/ha [6] [%] | efficacy (fleas dead or moribund) [12] [%] |
| --- | --- | --- | --- | --- | --- | --- | --- | --- | --- | --- | --- | --- | --- | --- | --- |
| Cc1nc([C@H](C)NC(=O)c2cc(C(F)(F)F)cc(C(F)(F)F)c2)n(-c2ncc(C#N)s2)n1 [I-90] | 100 | 90 | 100 | 80 to 100 | 90 to 100 | 80 to 100 | – | – | – | – | – | – | – | – | – |
| C[C@H](NC(=O)c1cc(Cl)cc(C2(C#N)CC2)c1)c1ncnn1-c1ncc(C#N)s1 [I-52] | 100 | 100 | 100 | – | 90 to 100 | 80 to 100 | 100 | 80 to 100 | – | – | – | – | – | – | – |
| Cc1nc([C@H](C)NC(=O)c2cc(Cl)cc(Br)c2)n(-c2ncc(C#N)s2)n1 [I-12] | 100 | – | 100 | – | – | – | – | – | 100 | 100 | 100 | 100 | – | – | – |
| Cc1nc([C@H](C)NC(=O)c2cc(C(F)(F)F)cc(C(F)(F)F)c2)n(-c2ncc(C(=O)N(C)CC(C)C)s2)n1 [I-8] | 100 | – | 100 | – | – | – | – | – | 100 | 100 | 100 | 100 | 100 | – | – |
| C[C@H](NC(=O)c1cc(Br)cc(C(C)(C)F)c1)c1ncnn1-c1ncc(C#N)s1 [I-99] | 100 | 100 | 100 | 80 to 100 | 90 to 100 | 80 to 100 | 100 | 80 to 100 | – | – | – | – | – | 100 | – |
| COCCN(C)C(=O)c1cnc(-n2nc(C)nc2[C@H](C)NC(=O)c2cc(C(F)(F)F)cc(C(F)(F)F)c2)s1 [I-3] | – | – | 100 | – | – | – | – | – | 100 | 100 | 80 | 100 | 90 | – | – |
| C[C@H](NC(=O)c1cc(Br)cc(C(C)(F)F)c1)c1ncnn1-c1ncc(C#N)s1 [I-47] | 100 | 90 | 100 | 80 to 100 | 90 to 100 | 80 to 100 | – | 80 to 100 | 90 | – | – | – | – | – | – |
| CC(NC(=O)c1cc(C(F)F)cc(C(F)F)c1)c1ncnn1-c1ncc(C#N)s1 (stereo not drawn) [I-33] | 100 | – | 100 | 80 to 100 | – | 80 to 100 | – | 80 to 100 | 90 | 100 | 100 | – | 100 | – | 80 |
| Cc1nc([C@H](C)NC(=O)c2cc(Cl)cc(C(F)(F)C(F)(F)F)c2)n(-c2ncc(C#N)s2)n1 [I-19] | 100 | – | 100 | – | – | – | – | – | 100 | 100 | 100 | 80 | – | – | – |
| C[C@H](NC(=O)c1cc(Br)cc(OC(F)F)c1)c1ncnn1-c1ncc(C#N)s1 [I-39] | 100 | – | 100 | – | 90 to 100 | 80 to 100 | – | 80 to 100 | 90 | 100 | 100 | – | 100 | – | 80 |
| Cc1nc([C@H](C)NC(=O)c2cc(C(F)(F)F)cc(C(F)(F)F)c2)n(-c2ncc(C(=O)N(C)C3CC3)s2)n1 [I-7] | 100 | – | 100 | – | – | – | – | – | 100 | 100 | 100 | 100 | 100 | – | – |
| Cc1nc([C@H](C)NC(=O)c2cc(Cl)nc(C(F)(F)F)c2)n(-c2ncc(C#N)s2)n1 [I-20, 2-chloro-N-{(1S)-1-[1-(5-cyano-1,3-thiazol-2-yl)-3-methyl-1H-1,2,4-triazol-5-yl]ethyl}-6-(trifluoromethyl)isonicotinamide] | 100 | – | – | – | – | – | – | – | 100 | 100 | 100 | 100 | – | – | – |
| Cc1nc([C@H](C)NC(=O)c2cc(Br)cc(Br)c2)n(-c2ncc(C#N)s2)n1 [I-13] | 100 | – | 83 | – | – | – | – | – | 100 | 100 | 100 | 100 | – | – | – |

Source: patent US20230065953A1, “NOVEL HETEROARYL-TRIAZOLE COMPOUNDS AS PESTICIDES” (Bayer Aktiengesellschaft, priority 2019, published 2023)
